Here are results for 25 compounds from PubChem BioAssay AID256 (DTP/NCI, 2004).

The subject of the assay is CD2F1 mice, L1210 leukemia ip, survival T/C. In words: NCI In Vivo Anticancer Drug Screen. Data for tumor model L1210 Leukemia (intraperitoneal) in CD2F1 (CDF1) mice. The note with it: higher = longer survival. The procedure, abridged: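 Transplantable tumor in mice; compound-treated vs vehicle-treated groups. Read-out = treated/control ratio of the measured endpoint.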

Setting [1] is: endpoint: mean survival time, dose: 100.0 mg/kg/injection, schedule: Q04DX003 (ip), vehicle: saline with Tween-80.
[2] abbreviates: endpoint: mean survival time, dose: 200.0 mg/kg/injection, schedule: Q04DX003 (ip), vehicle: saline with Tween-80.
Where [3] appears, read: endpoint: mean survival time, dose: 400.0 mg/kg/injection, schedule: Q04DX003 (ip), vehicle: saline with Tween-80.
Where [4] appears, read: endpoint: mean survival time, dose: 12.5 mg/kg/injection, schedule: Q01DX009 (ip), vehicle: saline with Tween-80.
Setting [5] is: endpoint: mean survival time, dose: 25.0 mg/kg/injection, schedule: Q01DX009 (ip), vehicle: saline with Tween-80.
Setting [6] is: endpoint: mean survival time, dose: 50.0 mg/kg/injection, schedule: Q01DX009 (ip), vehicle: saline with Tween-80.
[7] abbreviates: endpoint: mean survival time, dose: 100.0 mg/kg/injection, schedule: Q01DX009 (ip), vehicle: saline with Tween-80.
Where [8] appears, read: endpoint: mean survival time, dose: 200.0 mg/kg/injection, schedule: Q01DX009 (ip), vehicle: saline with Tween-80.
Setting [9] is: endpoint: mean survival time, dose: 400.0 mg/kg/injection, schedule: Q01DX009 (ip), vehicle: saline with Tween-80.
Setting [10] is: endpoint: mean survival time, dose: 100.0 mg/kg/injection, schedule: Q01DX009 (ip), vehicle: saline.
The mark [11] stands for this setting: endpoint: mean survival time, dose: 100.0 mg/kg/injection, schedule: Q04DX003 (ip), vehicle: saline.
The mark [12] stands for this setting: endpoint: mean survival time, dose: 200.0 mg/kg/injection, schedule: Q01DX009 (ip), vehicle: saline.
Where [13] appears, read: endpoint: mean survival time, dose: 200.0 mg/kg/injection, schedule: Q04DX003 (ip), vehicle: saline.
Where [14] appears, read: endpoint: mean survival time, dose: 400.0 mg/kg/injection, schedule: Q01DX009 (ip), vehicle: saline.
[15] abbreviates: endpoint: mean survival time, dose: 400.0 mg/kg/injection, schedule: Q04DX003 (ip), vehicle: saline.
[16] abbreviates: endpoint: mean survival time, dose: 25.0 mg/kg/injection, schedule: Q01DX001 (ip), vehicle: saline with Tween-80.
The mark [17] stands for this setting: endpoint: mean survival time, dose: 50.0 mg/kg/injection, schedule: Q01DX001 (ip), vehicle: saline with Tween-80.
Where [18] appears, read: endpoint: mean survival time, dose: 100.0 mg/kg/injection, schedule: Q01DX001 (ip), vehicle: saline with Tween-80.
[19] abbreviates: endpoint: mean survival time, dose: 200.0 mg/kg/injection, schedule: Q01DX001 (ip), vehicle: saline with Tween-80.

Each structure is given as a SMILES string. Several values for one entry are separate records, joined by “and”; a condition that tells them apart may be missing. Equal entries are not always repeated. Toxic doses and inconclusive results are not listed.

In the case of `COc1nc(NC2OCC(O)C(O)C2O)c(Br)c(=O)n1C` (stereo not drawn), the T/C reads like this: (endpoint: median survival time, dose: 12.5 mg/kg/injection, schedule: Q01DX005 (ip), vehicle: saline with Tween-80) 100 % of control; (endpoint: median survival time, dose: 25.0 mg/kg/injection, schedule: Q01DX005 (ip), vehicle: saline with Tween-80) 101 % of control; (endpoint: median survival time, dose: 50.0 mg/kg/injection, schedule: Q01DX005 (ip), vehicle: saline with Tween-80) 101 % of control; (endpoint: median survival time, dose: 100.0 mg/kg/injection, schedule: Q01DX005 (ip), vehicle: saline with Tween-80) 101 % of control; (endpoint: median survival time, dose: 200.0 mg/kg/injection, schedule: Q01DX005 (ip), vehicle: saline with Tween-80) 101 % of control.
In the case of `CNC(=O)Oc1cccc(NC(=O)OCCOC)c1`, the T/C was 99 % of control under setting [1], 99 % of control under setting [2] and 92 % of control under setting [3].
For the compound `C1=CC=CCC=C1`, the T/C is 92 % of control under setting [4], 92 % of control under setting [5] and 98 % of control under setting [6].
As for `O=C(O)CC(NC(=O)OCc1ccccc1)C(=O)OCc1ccccc1` (stereo not drawn), the T/C under setting [7] was 93 % of control; the T/C under setting [1] is 104 % of control; the T/C under setting [8] is 96 % of control; the T/C under setting [2] is 100 % of control; the T/C under setting [3] is 87 % of control.
For the compound `O=C1C(Br)C2CCC1C2C(=O)O` (stereo not drawn), the T/C under setting [1] is 101 % of control, the T/C under setting [2] was 98 % of control and the T/C under setting [3] was 98 % of control.
As to `C[N+](C)(C)CC1CS1` (stereo not drawn), the T/C (endpoint: mean survival time, dose: 4.5 mg/kg/injection, schedule: Q01DX009 (ip), vehicle: saline sonified) is 96 % of control; the T/C (endpoint: mean survival time, dose: 4.5 mg/kg/injection, schedule: Q04DX003 (ip), vehicle: saline) was 98 % of control; the T/C (endpoint: mean survival time, dose: 9.0 mg/kg/injection, schedule: Q01DX009 (ip), vehicle: saline sonified) is 94 % of control; the T/C (endpoint: mean survival time, dose: 9.0 mg/kg/injection, schedule: Q04DX003 (ip), vehicle: saline) is 98 % of control; the T/C (endpoint: mean survival time, dose: 18.0 mg/kg/injection, schedule: Q01DX009 (ip), vehicle: saline sonified) was 92 % of control; the T/C (endpoint: mean survival time, dose: 18.0 mg/kg/injection, schedule: Q04DX003 (ip), vehicle: saline) was 95 % of control.
For the compound `C1=CC(=P(c2ccccc2)(c2ccccc2)c2ccccc2)C=C1`, the T/C reads like this: under setting [7], 98 % of control; under setting [1], 94 % of control; under setting [8], 100 % of control; under setting [2], 95 % of control; (endpoint: mean survival time, dose: 240.0 mg/kg/injection, schedule: Q01DX015 (ip), vehicle: saline) 87 % of control; under setting [9], 94 % of control. For the same compound, the T/C reads like this: under setting [3], 94 % of control; (endpoint: mean survival time, dose: 480.0 mg/kg/injection, schedule: Q01DX015 (ip), vehicle: saline) 87 % of control; (endpoint: mean survival time, dose: 960.0 mg/kg/injection, schedule: Q01DX015 (ip), vehicle: saline) 92 % of control.
For `O=C1c2ccccc2C(Cl)(c2ccc(Cl)cc2)c2ccc(Cl)cc21` (stereo not drawn), the T/C is 111 % of control (endpoint: median survival time, dose: 25.0 mg/kg/injection, schedule: Q01DX009 (ip), vehicle: saline with Tween-80); 112 % of control (endpoint: median survival time, dose: 50.0 mg/kg/injection, schedule: Q01DX009 (ip), vehicle: saline with Tween-80); 111 % of control (endpoint: median survival time, dose: 100.0 mg/kg/injection, schedule: Q01DX009 (ip), vehicle: saline with Tween-80).
Consider `O=C1CCC(=O)N1CO`, for which the T/C by setting is: under setting [10], 102 % of control; under setting [11], 106 % of control; under setting [12], 109 % of control; under setting [13], 101 % of control; under setting [14], 111 % of control; under setting [15], 116 % of control.
On to `C1CC[N-]CC1.C1CC[N-]CC1.[Cl][Rh]([Cl])[Cl]`, for which the T/C under setting [4] is 90 % of control; the T/C under setting [5] is 98 % of control; the T/C under setting [6] was 100 % of control; the T/C under setting [7] is 94 % of control; the T/C under setting [8] was 96 % of control.
In the case of `NC(=O)c1ncc(-c2ccccc2)[nH]c1=O`, the T/C by setting is: under setting [11], 93 % of control; under setting [13], 98 % of control; under setting [15], 102 % of control.
As for `BrC1CC(Br)c2c1c1c(c3c2C(Br)CC3Br)C(Br)CC1Br` (stereo not drawn), the T/C by setting is: under setting [4], 100 % of control and 105 % of control; under setting [5], 102 % of control and 104 % of control; under setting [6], 104 % of control and 105 % of control; under setting [7], 97 % of control and 108 % of control; under setting [8], 114 % of control and 105 % of control; under setting [9], 104 % of control and 105 % of control.
As to `O=C(O)COc1ccc(NC(=O)COc2ccccc2)cc1`, the T/C under setting [16] was 100 % of control, the T/C under setting [17] was 97 % of control and the T/C under setting [18] is 100 % of control.
With `OC(CBr)C(O)CBr` (stereo not drawn), the T/C runs as follows: under setting [6], 108 % of control; (endpoint: mean survival time, dose: 50.0 mg/kg/injection, schedule: Q01DX009 (ip), vehicle: saline) 108 % of control; under setting [18], 102 % of control; under setting [7], 106 % of control; under setting [10], 108 % of control; under setting [1], 102 % of control. For the same compound, the T/C runs as follows: under setting [19], 109 % of control; under setting [2], 86 % of control.
For `CC(=O)Nc1nc2nccn2c(=O)[nH]1`, the T/C is, setting by setting: (endpoint: median survival time, dose: 50.0 mg/kg/injection, schedule: Q01DX005 (ip), vehicle: saline) 101 % of control; (endpoint: median survival time, dose: 100.0 mg/kg/injection, schedule: Q01DX005 (ip), vehicle: saline) 100 % of control; (endpoint: median survival time, dose: 200.0 mg/kg/injection, schedule: Q01DX005 (ip), vehicle: saline) 101 % of control.
On to `O=C(O)c1ccc(O)cc1C(=O)O.[NH-]C1CCCCC1[NH-].[Pt+2]`, for which the T/C was 168 % of control (endpoint: mean survival time, dose: 1.17 mg/kg/injection, schedule: Q04DX003 (ip), vehicle: other); 194 % of control (endpoint: mean survival time, dose: 9.38 mg/kg/injection, schedule: Q04DX003 (ip), vehicle: other); 189 % of control (endpoint: mean survival time, dose: 18.75 mg/kg/injection, schedule: Q04DX003 (ip), vehicle: other).
In the case of `Nc1ccc(S(=O)(=O)O)cc1[N+](=O)[O-]`, the T/C is, setting by setting: under setting [10], 92 % of control; under setting [12], 97 % of control; under setting [14], 101 % of control.
`C1=C\CCCCCCCC/1`: the T/C under setting [1] is 100 % of control and the T/C under setting [3] was 100 % of control.
For `CS(=O)CN(c1c(Cl)c(Cl)c(NS(=O)(=O)c2ccccc2)c(Cl)c1Cl)S(=O)(=O)c1ccccc1` (stereo not drawn), the T/C was 96 % of control under setting [18]; 92 % of control under setting [19]; 92 % of control (endpoint: mean survival time, dose: 400.0 mg/kg/injection, schedule: Q01DX001 (ip), vehicle: saline with Tween-80).
Turning to `CC(=O)NS(=O)(=O)c1ccc(N=Cc2ccc3c(c2)OCO3)cc1`, the T/C by setting is: under setting [7], 100 % of control; under setting [8], 95 % of control; under setting [9], 94 % of control.
Consider `OCC1CCCCCCC1`, for which the T/C by setting is: (endpoint: mean survival time, dose: 50.0 mg/kg/injection, schedule: Q01DX001 (ip), vehicle: carboxymethylcellulose (CMC)) 100 % of control; (endpoint: mean survival time, dose: 100.0 mg/kg/injection, schedule: Q01DX001 (ip), vehicle: carboxymethylcellulose (CMC)) 100 % of control; (endpoint: mean survival time, dose: 200.0 mg/kg/injection, schedule: Q01DX001 (ip), vehicle: carboxymethylcellulose (CMC)) 102 % of control; (endpoint: mean survival time, dose: 400.0 mg/kg/injection, schedule: Q01DX001 (ip), vehicle: carboxymethylcellulose (CMC)) 96 % of control.
Turning to `Fc1ccc(Nc2c3ccccc3nc3ccccc23)cc1`, the T/C under setting [7] was 96 % of control.
With `FC(F)(F)Cc1cccc(C(F)(F)F)c1`, the T/C reads like this: under setting [1], 109 % of control; under setting [2], 108 % of control; under setting [3], 100 % of control.
As for `CC(C)N(C=C(C#N)C#N)C(C)C`, the T/C was 91 % of control under setting [4]; 103 % of control under setting [16]; 96 % of control under setting [5]; 107 % of control under setting [17]; 98 % of control under setting [18].
For `O=C(c1ccc(-c2ccccc2)cc1)c1no[n+]([O-])c1C(=O)c1ccc(-c2ccccc2)cc1`, the T/C was 96 % of control under setting [7]; 86 % of control under setting [1]; 93 % of control under setting [8]; 98 % of control under setting [2]; 88 % of control under setting [3].
